Assay results: US20230365554A1, “SUBSTITUTED PYRROLO-PYRIDINONE DERIVATIVES AND THERAPEUTIC USES THEREOF” (The Broad Institute, Inc., priority 2020, published 2023)

Columns and labels:
human CSNK1D = human CSNK1D (Homo sapiens (Human), UniProt P48730); test: CSNK1D assay (ADP-Glo, 1 μM ATP); assay type: biochemical; conditions: median, Table 2, read-out: CSNK1D IC50 [mol/l] (median)
How it was run: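 GST-tagged full-length human CSNK1D (baculovirus/insect cell; typically about 0.5 ng/μL) preincubated with compound 15 min, then reacted 30 min at 22 °C with 1 μM ATP and 30 μM biotinylated peptide (final) in HEPES pH 7.5 buffer. ADP quantified by ADP-Glo luminescence; data normalised to no-inhibitor and no-enzyme controls.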

human CSNK1A1 = human CSNK1A1 (Homo sapiens (Human), UniProt P48729); test: CSNK1A1 Assay 2 (ADP-Glo, 1 μM ATP); assay type: biochemical; conditions: median, Table 2, read-out: CSNK1A1 Assay 2 IC50 [mol/l] (median)
How it was run: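 GST-tagged full-length human CSNK1A1 from insect cells, preincubated 15 min with compound, then reacted 30 min at 22° C with 1 μM ATP and 30 μM biotinylated peptide substrate in pH 7.5 HEPES buffer. ADP measured by ADP-Glo luminescence; normalised to no-inhibitor (0%) and no-enzyme (100%) controls.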

Chain of human CSNK1D (P48730 whole entry): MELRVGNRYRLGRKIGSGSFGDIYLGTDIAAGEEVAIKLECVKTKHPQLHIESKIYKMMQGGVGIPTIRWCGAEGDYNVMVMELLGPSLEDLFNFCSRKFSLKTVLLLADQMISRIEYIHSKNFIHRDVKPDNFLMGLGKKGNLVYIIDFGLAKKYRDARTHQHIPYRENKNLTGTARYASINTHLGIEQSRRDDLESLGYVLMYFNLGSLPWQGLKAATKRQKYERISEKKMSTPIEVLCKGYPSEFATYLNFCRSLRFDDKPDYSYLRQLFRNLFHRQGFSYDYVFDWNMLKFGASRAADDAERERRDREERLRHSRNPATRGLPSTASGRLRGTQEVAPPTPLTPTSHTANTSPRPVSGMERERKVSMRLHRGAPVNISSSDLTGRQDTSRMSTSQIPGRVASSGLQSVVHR
Chain of human CSNK1A1 (P48729 whole entry): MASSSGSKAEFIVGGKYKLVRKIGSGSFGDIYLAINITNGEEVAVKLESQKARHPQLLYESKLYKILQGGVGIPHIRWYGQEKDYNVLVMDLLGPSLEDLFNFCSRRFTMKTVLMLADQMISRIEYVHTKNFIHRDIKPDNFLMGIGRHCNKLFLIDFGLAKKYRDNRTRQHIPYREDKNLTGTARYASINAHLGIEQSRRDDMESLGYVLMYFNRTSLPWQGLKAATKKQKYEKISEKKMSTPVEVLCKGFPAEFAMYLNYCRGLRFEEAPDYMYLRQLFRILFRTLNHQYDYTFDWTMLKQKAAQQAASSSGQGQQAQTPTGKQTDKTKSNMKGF

SMILES	IC50 (human CSNK1D)	IC50 (human CSNK1A1)
O=C1N[C@@H]2CCC[C@@H]2c2[nH]c(-c3ccnc(NC(=O)C(CC(F)F)c4ccc(F)cc4)c3)c(Nc3ccccc3)c21 (single isomer, unassigned; (-)) [Example 23, (−)-(2R or S)—N-{4-[cis-3-anilino-4-oxo-1,4,5,5a,6,7,8,8a-octahydrocyclopenta[b]pyrrolo[2,3-d]pyridin-2-yl]pyridin-2-yl}-4,4-difluoro-2-(4-fluorophenyl)butanamide]	38 nM	24 nM
C[C@H](C(=O)Nc1cc(-c2[nH]c3ccn(C)c(=O)c3c2Nc2ccccc2)ccn1)c1ccc(F)cc1 (single isomer, unassigned) [Example 26]	22 nM	5.9 nM
Cn1cc(CC(F)(F)F)c2[nH]c(-c3ccnc(NC(=O)C(CC(F)F)c4ccc(F)cc4)c3)c(Nc3ccccc3)c2c1=O (single isomer, unassigned) [Example 37, N-{4-[3-anilino-5-methyl-4-oxo-7-(2,2,2-trifluoroethyl)-4,5-dihydro-1H-pyrrolo[3,2-c]pyridin-2-yl]pyridin-2-yl}-4,4-difluoro-2-(4-fluorophenyl)butanamide]	15 nM	12 nM
CN1CC(CC(F)F)c2[nH]c(-c3ccnc(NC(=O)Cc4ccc(F)cc4)c3)c(Nc3ccccc3)c2C1=O (single isomer, unassigned) [Example 43, N-{4-[3-anilino-7-(2,2-difluoroethyl)-5-methyl-4-oxo-4,5,6,7-tetrahydro-1H-pyrrolo[3,2-c]pyridin-2-yl]pyridin-2-yl}-2-(4-fluorophenyl)acetamide]	4.3 nM	2.8 nM
O=C1N[C@@H]2CCC[C@@H]2c2[nH]c(-c3ccnc(NC(=O)C(CC(F)F)c4ccc(F)cc4)c3)c(Nc3ccccc3)c21 (mixture of isomers) [Example 21, (2RS)—N-{4-[cis-3-anilino-4-oxo-1,4,5,5a,6,7,8,8a-octahydrocyclopenta[b]pyrrolo[2,3-d]pyridin-2-yl]pyridin-2-yl}-4,4-difluoro-2-(4-fluorophenyl)butanamide]	18 nM	11 nM
CN1CC(CC(F)(F)F)c2[nH]c(-c3ccnc(NC(=O)Cc4ccc(F)cc4)c3)c(Nc3ccccc3)c2C1=O (single isomer, unassigned) [Example 15, N-{4-[3-anilino-5-methyl-4-oxo-7-(2,2,2-trifluoroethyl)-4,5,6,7-tetrahydro-1H-pyrrolo[3,2-c]pyridin-2-yl]pyridin-2-yl}-2-(4-fluorophenyl)acetamide]	20 nM	9.4 nM
Cc1cn(C)c(=O)c2c(Nc3ccccc3)c(-c3ccnc(NC(=O)C(C)c4ccc(F)cc4)c3)[nH]c12 (racemic) [Example 39, N-[4-(3-anilino-5,7-dimethyl-4-oxo-4,5-dihydro-1H-pyrrolo[3,2-c]pyridin-2-yl)pyridin-2-yl]-2-(4-fluorophenyl)propanamide]	56 nM	51 nM
CN1CC(CC2CC2)c2[nH]c(-c3ccnc(NC(=O)Cc4ccc(F)cc4)c3)c(Nc3ccccc3)c2C1=O (single isomer, unassigned) [Example 19, N-{4-[3-anilino-7-(cyclopropylmethyl)-5-methyl-4-oxo-4,5,6,7-tetrahydro-1H-pyrrolo[3,2-c]pyridin-2-yl]pyridin-2-yl}-2-(4-fluorophenyl)acetamide]	6.5 nM	3.9 nM
CN1CC(CC(F)(F)F)c2[nH]c(-c3ccnc(NC(=O)Cc4ccc(F)cc4)c3)c(Nc3ccccc3)c2C1=O (single isomer, unassigned) [Example 16, N-{4-[3-anilino-5-methyl-4-oxo-7-(2,2,2-trifluoroethyl)-4,5,6,7-tetrahydro-1H-pyrrolo[3,2-c]pyridin-2-yl]pyridin-2-yl}-2-(4-fluorophenyl)acetamide]	7.1 nM	4.3 nM
CN1CC(CC(F)(F)F)c2[nH]c(-c3ccnc(NC(=O)C(CC(F)F)c4ccc(F)cc4)c3)c(Nc3cscn3)c2C1=O (single isomer, unassigned) [Example 55, (2R or S)-4,4-difluoro-2-(4-fluorophenyl)-N-{4-[(7R or S)-5-methyl-4-oxo-3-[(1,3-thiazol-4-yl)amino]-7-(2,2,2-trifluoroethyl)-4,5,6,7-tetrahydro-1H-pyrrolo[3,2-c]pyridin-2-yl]pyridin-2-yl}butanamide]	110 nM	59 nM
Cc1cc2[nH]c(-c3ccnc(NC(=O)C(CC(F)F)c4ccc(F)cc4)c3)c(Nc3ccccc3F)c2c(=O)n1C (racemic) [Example 31, 4,4-difluoro-N-{4-[3-(2-fluoroanilino)-5,6-dimethyl-4-oxo-4,5-dihydro-1H-pyrrolo[3,2-c]pyridin-2-yl]pyridin-2-yl}-2-(4-fluorophenyl)butanamide]	32 nM	31 nM
CN1CC(CC(F)(F)F)c2[nH]c(-c3ccnc(NC(=O)Cc4ccc(F)cc4)c3)c(Nc3cscn3)c2C1=O (single isomer, unassigned) [Example 47, 2-(4-fluorophenyl)-N-{4-[(7R or S)-5-methyl-4-oxo-3-(1,3-thiazol-4-ylamino)-7-(2,2,2-trifluoroethyl)-4,5,6,7-tetrahydro-1H-pyrrolo[3,2-c]pyridin-2-yl]pyridin-2-yl}acetamide]	8.4 nM	3.4 nM
Cn1ccc2[nH]c(-c3ccnc(NC(=O)C(CC(F)F)c4ccc(F)cc4)c3)c(Nc3ccccc3)c2c1=O (single isomer, unassigned) [Example 29, N-[4-(3-anilino-5-methyl-4-oxo-4,5-dihydro-1H-pyrrolo[3,2-c]pyridin-2-yl)pyridin-2-yl]-4,4-difluoro-2-(4-fluorophenyl)butanamide]	53 nM	50 nM
Cn1cc(CC(F)(F)F)c2[nH]c(-c3ccnc(NC(=O)C(CC(F)F)c4ccc(F)cc4)c3)c(Nc3ccccc3)c2c1=O (single isomer, unassigned) [Example 36, N-{4-[3-anilino-5-methyl-4-oxo-7-(2,2,2-trifluoroethyl)-4,5-dihydro-1H-pyrrolo[3,2-c]pyridin-2-yl]pyridin-2-yl}-4,4-difluoro-2-(4-fluorophenyl)butanamide]	7.6 nM	6.2 nM
CN1CC(CC2CC2)c2[nH]c(-c3ccnc(NC(=O)Cc4ccc(F)cc4)c3)c(Nc3cscn3)c2C1=O (racemic) [Example 49, N-{4-[(7RS)-7-(cyclopropylmethyl)-5-methyl-4-oxo-3-(1,3-thiazol-4-ylamino)-4,5,6,7-tetrahydro-1H-pyrrolo[3,2-c]pyridin-2-yl]pyridin-2-yl}-2-(4-fluorophenyl)acetamide]	14 nM	5.9 nM
CN1CC(CC(F)(F)F)c2[nH]c(-c3ccnc(NC(=O)Cc4ccc(F)cc4)c3)c(Nc3ccccc3)c2C1=O (racemic) [Example 14, N-{4-[3-anilino-5-methyl-4-oxo-7-(2,2,2-trifluoroethyl)-4,5,6,7-tetrahydro-1H-pyrrolo[3,2-c]pyridin-2-yl]pyridin-2-yl}-2-(4-fluorophenyl)acetamide]	5.1 nM	3.1 nM
Cc1ccccc1Nc1c(-c2ccnc(NC(=O)Cc3ccc(F)cc3)c2)[nH]c2c(CC(F)(F)F)cn(C)c(=O)c12 [Example 33, 2-(4-fluorophenyl)-N-{4-[5-methyl-3-(2-methylanilino)-4-oxo-7-(2,2,2-trifluoroethyl)-4,5-dihydro-1H-pyrrolo[3,2-c]pyridin-2-yl]pyridin-2-yl}acetamide]	6.2 nM	8.6 nM
CN1CC(CC(F)(F)F)c2[nH]c(-c3ccnc(NC(=O)Cc4ccc(F)cc4)c3)c(Nc3cscn3)c2C1=O (racemic) [Example 46, 2-(4-fluorophenyl)-N-{4-[(7RS)-5-methyl-4-oxo-3-(1,3-thiazol-4-ylamino)-7-(2,2,2-trifluoroethyl)-4,5,6,7-tetrahydro-1H-pyrrolo[3,2-c]pyridin-2-yl]pyridin-2-yl}acetamide]	72 nM	23 nM
CCC1CNC(=O)c2c1[nH]c(-c1ccnc(NC(=O)Cc3ccc(F)cc3)c1)c2Nc1ccccc1 (racemic) [Example 1, N-{4-[3-anilino-7-ethyl-4-oxo-4,5,6,7-tetrahydro-1H-pyrrolo[3,2-c]pyridin-2-yl]pyridin-2-yl}-2-(4-fluorophenyl)acetamide]	5.5 nM	1.5 nM
Cc1cn(C)c(=O)c2c(Nc3ccccc3)c(-c3ccnc(NC(=O)C(CC(F)F)c4ccc(F)cc4)c3)[nH]c12 (single isomer, unassigned) [Example 13, N-[4-(3-anilino-5,7-dimethyl-4-oxo-4,5-dihydro-1H-pyrrolo[3,2-c]pyridin-2-yl)pyridin-2-yl]-4,4-difluoro-2-(4-fluorophenyl)butanamide]	22 nM	19 nM
Cn1ccc2[nH]c(-c3ccnc(NC(=O)C(CC(F)F)c4ccc(F)cc4)c3)c(Nc3ccccc3)c2c1=O (single isomer, unassigned) [Example 30, N-[4-(3-anilino-5-methyl-4-oxo-4,5-dihydro-1H-pyrrolo[3,2-c]pyridin-2-yl)pyridin-2-yl]-4,4-difluoro-2-(4-fluorophenyl)butanamide]	7.1 nM	3.7 nM
CN1CC(CC(F)(F)F)c2[nH]c(-c3ccnc(NC(=O)C(CC(F)F)c4ccc(F)cc4)c3)c(Nc3cscn3)c2C1=O (racemic) [Example 52, (2RS)-4,4-difluoro-2-(4-fluorophenyl)-N-{4-[(7RS)-5-methyl-4-oxo-3-[(1,3-thiazol-4-yl)amino]-7-(2,2,2-trifluoroethyl)-4,5,6,7-tetrahydro-1H-pyrrolo[3,2-c]pyridin-2-yl]pyridin-2-yl}butanamide]	12 nM	7.9 nM
